Patent US20230144436A1, “MUSCLE TARGETING COMPLEXES AND USES THEREOF FOR TREATING MYOTONIC DYSTROPHY” (Dyne Therapeutics, Inc., priority 2020, published 2023)

Test system: DMPK
Assay: DMPK knockdown by transfected antisense oligonucleotides in DM1 C15 myotubes at 0.5 nM and 50 nM
Type: cell-based
Conditions: 72 hours; for Normalized DMPK Remaining: relative to vehicle control = 1.00
Protocol: Two hundred and thirty-six oligonucleotides for targeting DMPK were generated using in silico analysis. Each individual oligonucleotide was evaluated for their ability to target DMPK in cellulo at two doses—0.5 nM (low dose) and 50 nM (high dose).
Briefly, DM1 C15 immortalized myoblasts were cultured in T-75 flasks until near confluency (˜80% confluent). Myoblasts were then disrupted with trypsin and seeded into 96-well microplates at a density of 50,000 cells/well. Cells were allowed to recover overnight before the growth media was washed out and replaced with a no-serum media to induce differentiation into myotubes. Differentiation proceeded for seven days prior to treatment with DMPK-targeting oligonucleotides.
On day seven following induction of differentiation, DM1 C15 myotubes were transfected with an individual oligonucleotide using 0.3 μL of Lipofectamine MessengerMax per well. All oligonucleotides were tested at both 0.5 nM and 50 nM final concentrations in biological triplicates. After treatment with oligonucleotides, cells were incubated for 72 hours prior to being harvested for total RNA. cDNA was synthesized from the total RNA extracts and qPCR was performed to determine expression levels of DMPK in technical quadruplicate. All qPCR data were analyzed using a traditional […] method and were normalized to a plate-based negative control that comprised cells treated with vehicle control (0.3 μL/well Lipofectamine MessengerMax without any oligonucleotide). Results from these experiments are shown in Table 10. ‘Normalized DMPK Remaining’ for each antisense oligonucleotide in Table 10 refers to the expression level of DMPK in cell treated with said antisense oligonucleotide relative to the negative control that comprised cells treated with vehicle control (wherein the expression level of the negative control has been normalized to equal 1.00)

[1] = 0.5 nM oligonucleotide, qPCR, relative to vehicle control
[2] = 50 nM oligonucleotide, qPCR, relative to vehicle control

Substance	Percent DMPK Reduction [1] [%]	Normalized DMPK Remaining (0.5 nM oligonucleotide, qPCR)	Percent DMPK Reduction [2] [%]	Normalized DMPK Remaining (50 nM oligonucleotide, qPCR)	Percent DMPK Reduction (0.5 nM oligonucleotide) [%]	Normalized DMPK Remaining (0.5 nM oligonucleotide)	Percent DMPK Reduction (50 nM oligonucleotide) [%]	Normalized DMPK Remaining (50 nM oligonucleotide)
256 (UCCGCCAGGUAGAAGCGCGC; chemistry not given here) [compound 256]	27.99	0.72	80.06	0.20	–	–	–	–
409 (GGCUUGCUGCCUUCCCAGGC; chemistry not given here) [compound 409]	–	–	–	–	-6.32	1.06	48.15	0.52
262 (UGUCGGGUUUGAUGUCCCUG; chemistry not given here) [compound 262]	30.09	0.70	68.14	0.32	–	–	–	–
276 (UGUGCACGUAGCCAAGCCGG; chemistry not given here) [compound 276]	24.74	0.75	75.09	0.25	–	–	–	–
377 (UUUCCCGAGUAAGCAGGCAG; chemistry not given here) [compound 377]	–	–	–	–	20.69	0.79	44.89	0.55
354 (AGACAAUAAAUACCGAGGAA; chemistry not given here) [compound 354]	29.37	0.71	48.20	0.52	–	–	–	–
443 (CCAUCCGCUCCUGCAACUGC; chemistry not given here) [compound 443]	–	–	–	–	19.53	0.80	71.62	0.28
380 (UGCCCAUAGAACAUUUCAUA; chemistry not given here) [compound 380]	–	–	–	–	7.67	0.92	34.56	0.65
247 (GGGCCCGGAUCACAGGACUG; chemistry not given here) [compound 247]	57.97	0.42	61.96	0.38	–	–	–	–
261 (GAAGUCGGCCAGGCGGAUGU; chemistry not given here) [compound 261]	18.36	0.82	44.04	0.56	–	–	–	–
440 (CAGGAGCAGGGAAAGCGCCU; chemistry not given here) [compound 440]	–	–	–	–	12.48	0.88	51.82	0.48
250 (CGGAUGGCCUCCAUCUCCCG; chemistry not given here) [compound 250]	28.92	0.71	55.57	0.44	–	–	–	–
467 (AGCUCCCGCAGCGUCACCUC; chemistry not given here) [compound 467]	–	–	–	–	13.72	0.86	80.40	0.20
416 (GCCUCGCGUAGUUGACUGGC; chemistry not given here) [compound 416]	–	–	–	–	12.98	0.87	91.10	0.09
450 (ACAGAACAACGGCGAACAGG; chemistry not given here) [compound 450]	–	–	–	–	2.07	0.98	55.96	0.44
458 (GUCGGCCAGGCGGAUGUGGC; chemistry not given here) [compound 458]	–	–	–	–	15.35	0.85	74.59	0.25
360 (GACAAUAAAUACCGAGGAAU; chemistry not given here) [compound 360]	28.97	0.71	47.51	0.52	–	–	–	–
283 (GCCAAAGAAGAAGGGAUGUG; chemistry not given here) [compound 283]	24.87	0.75	56.19	0.44	–	–	–	–
441 (CAAUCUCCGCCAGGUAGAAG; chemistry not given here) [compound 441]	–	–	–	–	15.95	0.84	49.25	0.51
326 (CAGCGCCCACCAGUCACACU; chemistry not given here) [compound 326]	37.28	0.63	64.93	0.35	–	–	–	–
246 (GGACGGCCCGGCUUGCUGCC; chemistry not given here) [compound 246]	58.25	0.42	69.30	0.31	–	–	–	–
457 (GGGCCUUUUAUUCGCGAGGG; chemistry not given here) [compound 457]	–	–	–	–	5.11	0.95	50.65	0.49
325 (GGUAGUUCUCAUCCUGGAAG; chemistry not given here) [compound 325]	25.48	0.75	56.15	0.44	–	–	–	–
368 (CAGCAGUGUCAGCAGGUCCC; chemistry not given here) [compound 368]	25.67	0.74	51.97	0.48	–	–	–	–
